Results published in patent US12403091B2, “Delivery system” (SMARTECH TOPICAL, INC., priority 2016, dated 2025).

Details: same subject; Celebrex initiated and stopped after 3 days

Cc1ccc(-c2cc(C(F)(F)F)nn2-c2ccc(S(N)(=O)=O)cc2)cc1 [Celebrex, celecoxib]
Side effects leading to discontinuation: drowsiness and GI side effects
